{"source": "patent US20100298348A1", "about": "“Method of Decreasing Ubiquitylated Protein Levels” (priority 2009, published 2010)", "key": {"Neuro2a cells": {"tested_on": "Neuro2a cells", "experiment": "Aβ production by Neuro2a cells, ELISA of culture medium", "format": "cell-based, murine", "conditions": "24 hours treatment, vs control", "procedure": "Neuro2a is a murine neuroblastoma cell line that is known to produce amyloid peptides Aβ1-40 and Aβ1-42 in amounts measurable by ELISA assays. These forms of Aβ have been correlated with the pathology in AD brain and Aβ1-42 in particular is postulated to have the ability to block a7 nicotinic receptors and to produce direct neurotoxic effects. Neuro2a cells were treated for 24 hours with ST101 added to the tissue culture medium. Tissue culture medium was collected and analyzed by ELISA for the presence of Aβ."}, "beta-tubulin": {"tested_on": "beta-tubulin", "experiment": "Western blot of beta-tubulin in cynomolgus monkey hippocampus", "format": "in vivo", "conditions": "cynomolgus monkeys of Example 19, hippocampal brain samples", "from_the_text": "The effects on tubulin were confirmed in the group of cynomolgus monkeys described in example 19."}, "ubiquitylated proteins": {"tested_on": "ubiquitylated proteins", "experiment": "Anti-ubiquitin Western blot of C57/B6 wildtype mouse brain", "format": "in vivo", "conditions": "C57/B6 wildtype mice, 5 mg/kg/day in drinking water, 2 months", "procedure": "Brain extracts from 2 month-old C57/B6 wildtype mice that had been treated with ST101 at 5/mg/kg/day in drinking water over 2 months were analyzed in Western blots using an anti-ubiquitin antibody (Dako no. Z0448)."}, "tau [1]": {"tested_on": "tau", "experiment": "Tau immunohistochemistry with H7 antibody in 3xTg-AD mice", "format": "in vivo, mouse", "from_the_text": "The 3xTg-AD mouse model incorporates both pathological hallmarks of Alzheimer's disease: Aβ amyloid plaques and neurofibrillary tangles. Neurofibrillary tangles consist of accumulates of abnormally phosphorylated tau protein. In the 3xTg-AD mice pathological somato-dendritic accumulation of tau can be seen in immunohistochemistry as part of the disease model phenotype.\nST101 effects on tau distribution and accumulation were explored in immunohistochemistry with H7 anti-tau antibody."}, "[2]": {"tested_on": "acetylcholine (ACh) and dopamine", "experiment": "Acetylcholine and dopamine release and extracellular concentrations"}, "tau [3]": {"tested_on": "tau", "experiment": "Western blot of tau species in 3xTg-AD mouse brain", "format": "in vivo", "conditions": "3xTg-AD mice ~12 months old, 5 mg/kg/day, 2 months, overexposed blot", "from_the_text": "The status of tau phosphorylation, accumulation and degradation can be assessed in Western blots. Two anti-tau antibodies, directed against non-phosphorylated and phosphorylated tau, were used to probe brain extracts from the initial experiment. FIG. 12 is a series of Western blots depicting levels of full-length tau, tau accumulates, tau degradation products and phosphorylated tau levels in brain extracts from ST101 treated 3×TG-AD mice (S) versus control mice (C). Beta actin levels (Ac) were used as a loading control. P-tau, two panels per antibody: top—normal exposure; bottom—overexposure to visualize minor protein bands. Ac: beta actin antibody as protein loading control. Animals were approximately 12 months old at sacrifice after 2 months of treatment with ST101 at 5 mg/kg/day."}, "ADAM10": {"tested_on": "ADAM10", "experiment": "Western blot of ADAM10 in cynomolgus monkey hippocampus", "format": "in vivo", "conditions": "male cynomolgus monkeys, 9 months oral, 100 mg/kg/day", "procedure": "(§1) Male cynomolgus monkeys were treated for 9 months with 0, 10, 30 or 100 mg/kg/day ST101 with once daily oral drug administration. Hippocampal brain samples were analyzed in Western blots and ELISAs for APP fragments and Aβ. […] Reductions in a ˜55-kDa fragment were also seen with treatment in these groups. Black outlines depict image level enhancement in Adobe Photoshop CS4, to better visualize weak signals. […] However, long exposures reveal the presence of the 17-kDa APP fragment only in treated monkeys (antibody CT20, Calbiochem). This fragment was not detected in either the 30 or 10 mg/kg/day ST101 groups. Error bars indicate SEM (standard error of the mean) and * indicates statistical significance versus control (p<0.05). (S: ST101-treated animals, versus C: control animals)."}, "SAMP8 mouse": {"tested_on": "SAMP8 mouse", "conditions": "cited from earlier work"}, "BACE": {"tested_on": "BACE", "experiment": "Western blot of BACE in cynomolgus monkey hippocampus", "format": "in vivo", "conditions": "male cynomolgus monkeys, 9 months oral, 100 mg/kg/day", "procedure": "as §1"}, "APP": {"tested_on": "APP", "experiment": "Western blot of APP and C-terminal fragments in 3xTg-AD mouse brain", "format": "in vivo", "conditions": "5 mg/kg/day", "procedure": "To attempt to determine at what part in the Aβ processing/release pathway ST101 may be active, a series of Western blot analyses of brain extracts from the same mice were conducted. These Westerns blots examined intact APP as well as products of its post-translational processing and subsequent degradation.\nFIG. 4 is a Western blot that depicts APP C-terminal fragments detected by antibody CT20 in the brains of ST101-treated (S) 3xTg-AD mice, relative to untreated (C) 3xTg mice-AD.\nFIG. 5 is a Western blot that depicts APP and degradation fragments detected by antibody CT20 in the brains of ST101-treated (S) 3xTg-AD mice, relative to untreated (C) 3xTg-AD mice. “CT20” stands for full length APP species, and “Actin” stands for anti-beta-actin antibody as a protein loading control.\nFIGS. 10A and 10B are Western blots that depict APP carboxy-terminal fragments detected by antibody CT20 in the brains of ST101-treated (T in FIG. 10A, S in FIG. 10B) 3xTg-AD mice, relative to untreated (C) 3xTg-AD mice. FIG. 10B is from a separate experiment that used the same brain extract used in the experiment for FIG. 10A. Animals were approximately 14.5 months old at sacrifice after 2.5 months of treatment with ST101 at 5 mg/kg/day in drinking water. * denotes a control animal with low levels of CTFs.\nFIGS. 10C and 10D are Western blots that depict APP carboxy-terminal fragments detected by an APP C-terminal antibody (Eptitomics #: 15654-1) in the brains of ST101-treated (S) 3xTg-AD mice, relative to untreated (C) 3xTg-AD mice. FIG. 10D is a lighter exposure of the Western blot in FIG. 10C. Animals were approximately 14.5 months old at sacrifice after 2.5 months of treatment with ST101 at 5 mg/kg/day in drinking water.\nBrain extracts from 12-month-old 3xTg-AD mice that had been treated with ST101 (S) at 5/mg/kg/day in drinking water over 2 months were analyzed in Western blots using a C-terminal APP antibody (CT-20 Calbiochem)."}, "[4]": {"conditions": "3xTg-AD mice ~12 months old, 2 months, antibody CT20"}}}
{"smiles": "O=C1N=C2C=CC=CN2C12Cc1ccccc1C2", "note": "[ST101, spiro(imidazo[1,2-a]pyridin-2(3H)-one-3,2′-indan)]", "values": [{"measurement": "Aβ1-40 concentration in cell culture medium", "setting": "Neuro2a cells", "value": "without major effects"}, {"measurement": "Aβ1-42 concentration in cell culture medium", "setting": "Neuro2a cells", "value": "significantly reduced"}, {"measurement": "beta-tubulin degradation products", "setting": "beta-tubulin", "value": "increase"}, {"measurement": "ubiquitylated proteins", "setting": "ubiquitylated proteins", "value": "modest reduction"}, {"measurement": "neuronal loss, Hematoxylin/Eosin stained control sections", "setting": "tau [1]", "value": "no neuronal loss"}, {"measurement": "pathological somato-dendritic tau staining", "setting": "tau [1]; hippocampus, H7 anti-tau antibody", "value": "clear reduction"}, {"measurement": "nicotine-stimulated release of acetylcholine (ACh)", "setting": "[2]", "value": "potentiates"}, {"measurement": "extracellular ACh concentrations", "setting": "[2]; cerebral cortex", "value": "increases"}, {"measurement": "extracellular concentration of ACh", "setting": "[2]; hippocampus", "value": "increases"}, {"measurement": "extracellular concentration of dopamine", "setting": "[2]; hippocampus", "value": "increases"}, {"measurement": "accumulated tau and degradation products", "setting": "tau [3]; H7 antibody", "value": "disappearance"}, {"measurement": "phosphorylated tau degradation product", "setting": "tau [3]; R-p-tau antibody", "value": "appearance of a new phosphorylated tau degradation product"}, {"measurement": "ADAM10 level", "setting": "ADAM10", "value": "no differences"}, {"measurement": "accumulation of Aβ-like deposits in brain tissue", "setting": "SAMP8 mouse", "value": "decreased"}, {"measurement": "learning and memory functions", "setting": "SAMP8 mouse", "value": "improvement"}, {"measurement": "BACE level", "setting": "BACE", "value": "no differences"}, {"measurement": "AICD fragment (APP intracellular domain)", "setting": "APP; 3xTg-AD mice 12 months old, 2 months, antibody CT-20", "value": "visible in brain extracts from ST101 treated mice (S) but not in control mice (C)"}, {"measurement": "C83 C-terminal APP fragment", "setting": "APP; [4]", "value": "substantial decrease"}, {"measurement": "C99 C-terminal APP fragment", "setting": "APP; [4]", "value": "substantial decrease"}, {"measurement": "full-length APP species, band shift", "setting": "APP; [4]", "value": "slightly lowered molecular weight"}, {"measurement": "major APP degradation intermediate (~50 kDa)", "setting": "APP; [4]", "value": "disappearance or significant reduction"}, {"measurement": "novel C-terminal APP fragment of about 17 kDa", "setting": "APP; [4]", "value": "appearance"}, {"measurement": "17 kDa APP fragment", "setting": "APP; 3xTg-AD mice ~14.5 months old, 2.5 months", "value": "lack of detection"}, {"measurement": "C99 fragment", "setting": "APP; 3xTg-AD mice ~14.5 months old, 2.5 months, Epitomics C-terminal APP antibody", "value": "reduction"}, {"measurement": "APP CTFs", "setting": "APP; 3xTg-AD mice ~14.5 months old, 2.5 months, antibody CT20", "value": "significant effect of reduction"}, {"measurement": "C83 fragment", "setting": "APP; 3xTg-AD mice ~14.5 months old, 2.5 months, compared with 12-month old mice", "value": "not reduced to the same degree"}]}
